Here are results for one compound from patent US9675649B2, “Disialyllacto-N-tetraose (DSLNT) or variants, isomers, analogs and derivatives thereof to prevent or inhibit bowel disease” (The Regents of the University of California, priority 2011, dated 2017).

The structures appear in SMILES notation.

In this test the test system is NEC model in neonatal rats. Kind of test: Induction and evaluation of NEC in neonatal rats (formula feeding by oral gavage plus hypoxia). In kind it is in vivo, Sprague-Dawley rats. The conditions noted are these: HMO fractions/subfractions added to formula at their respective concentrations in pooled HMO at 10 mg/ml, 96 h post-partum.

Description: Instead, we tested HMO in a well-established NEC model with neonatal Sprague-Dawley rats. We induced time-pregnant rats by oxytocin and randomized their pups into the different intervention groups. Some pups were left with the dam to serve as breast-fed controls; others were formula-fed by oral gavage twice daily. All pups were exposed to hypoxia thrice daily. On day-of-life 4, we sacrificed the pups and analyzed their intestines for macroscopic and microscopic signs of NEC. The ileum was prepared for H&E staining and evaluated blindly by three independent investigators to determine NEC pathology scores. […] We then isolated HMO from pooled human milk and added them to the formula.
Each HMO fraction and subfraction was tested at concentrations that were based on their relative abundance in pooled HMO at 10 mg/mL, the average concentration in mature human milk. Assuming an average molecular weight of 1,000 g/mol for pooled HMO, 10 mg/mL is equivalent to 10 mM.
Briefly, pregnant time-dated Sprague-Dawley rats were induced at term using Pitocin (1-2 U per animal). Immediately after birth, neonates were randomized into one of the different study groups. Animals in the dam-fed (DF) group remained with the dam. All other animals were separated from the dam, housed in a temperature- and humidity-controlled incubator and orally gavaged with a special rodent formula (0.2 ml) twice daily. […] A 0.5 cm section of the terminal ileum was prepared for H&E staining per standard protocols and scored blindly by three investigators based on morphological changes that included epithelial sloughing, villus oedema, infiltration of neutrophils, apoptosis of villus enterocytes, crypt hyperplasia and misaligned nuclei in the epithelium. […] Pathology scores were plotted for each animal and the mean calculated per group. […] Differences between the groups were calculated by one-way ANOVA with the Kruskal-Wallis test and Dunn's multiple comparison test. […]

Turning to `CC(=O)N[C@H]1[C@H](O[C@H]2[C@@H](O)[C@@H](CO)O[C@@H](O[C@@H]([C@H](O)[C@@H](O)C=O)[C@H](O)CO)[C@@H]2O)O[C@H](CO[C@]2(C(=O)O)C[C@H](O)[C@@H](NC(C)=O)[C@H]([C@H](O)[C@H](O)CO)O2)[C@@H](O)[C@@H]1O[C@@H]1O[C@H](CO)[C@H](O)[C@H](O[C@]2(C(=O)O)C[C@H](O)[C@@H](NC(C)=O)[C@H]([C@H](O)[C@H](O)CO)O2)[C@H]1O` [DSLNT, Disialyllacto-N-tetraose], the ileum pathology score result by setting is: (listed as #2) “significantly reduced NEC”; (listed as HMO 2) 0.64±0.41; (listed as HMO #2) “significantly reduced NEC pathology scores”.
